| Compound | melting point |
| --- | --- |
| COc1cc(C(C)=O)ccc1SCC(=O)O | 134 to 136 °C |
| Cc1c(C(=O)O)nnn1-c1cccc(Cl)c1 | 179 to 181 °C |
| Cn1c(C(F)(F)F)nc2cc(C(=O)O)ccc21 | 254 to 256 °C |
| CC(O)(C(=O)O)c1cccc(F)c1 (stereo unspecified) | 99 to 101 °C |
| Nc1cccc(-c2nc3ccccc3s2)c1 | 138 to 140 °C |
| O=[N+]([O-])c1ccc(-c2noc(Cl)n2)cc1 | 118 to 120 °C |
| CC(C)(C)OC(=O)N1CCC(CC(=O)O)CC1 | 98 to 100 °C |
| Cc1cc(NC(=O)OC(C)(C)C)ccn1 | 167 to 169 °C |
| O=C1COc2cc(S(=O)(=O)Cl)c(Cl)cc2N1 | 248 to 250 °C |
| NCCCN1CCN(c2ncccn2)CC1 | 72 to 74 °C |
| O=C(O)C1CCN1Cc1ccccc1 (stereo unspecified) | 176 to 178 °C |
| CCNCC(O)c1ccc(C)cc1 (stereo unspecified) | 88 to 90 °C |
| Nc1cc(Cl)c(OC(F)F)c(Cl)c1 | 82 to 84 °C |
| Cc1nn(C2CCCCC2)c(C)c1N | 69 to 71 °C |
| Clc1ccc2nc(Cl)nc(Cl)c2c1 | 89 to 91 °C |
| CCOCCCNC(=O)CC#N | 45 to 49 °C |
| NNC(=O)NCC(F)(F)F | 68 to 70 °C |
| CCOc1ccc(C(=O)NN)cc1OC | 161 to 163 °C |
| O=C(O)CCCNC(=O)c1ccc(Cl)cc1 | 108 to 110 °C |
| CN1CCCN(c2nc3ccccc3cc2CO)CC1 | 95 to 97 °C |
| CC(C)NS(=O)(=O)c1ccc(F)c(C(=O)O)c1 | 167 to 169 °C |
| COc1cccc(C(N)(C(=O)O)C(F)(F)F)c1 (stereo unspecified) | 139 to 141 °C |
| CS(=O)(=O)C(Br)C(=O)c1ccccc1 (stereo unspecified) | 90 to 92 °C |
| Nc1nnc(Cc2ccccc2Cl)o1 | 196 to 198 °C |

| Compound | melting point |
| --- | --- |
| c1n[nH]cc1C1CCNCC1 | 149 to 151 °C |
| Nc1c(-c2ccccc2)nc2ccccn12 | 152 to 155 °C |
| O=C(NCc1ccc2c(c1)OCO2)C(Cl)c1ccccc1 (stereo unspecified) | 104 to 106 °C |
| FC(F)n1ccnc1Cn1cc(Br)cn1 | 79 to 81 °C |
| Clc1ccc(N2CCOCC2)nn1 | 131 to 133 °C |
| NNC(=O)CC(F)(F)F | 90 to 92 °C |
| Cc1ccc(/C=C/S(=O)(=O)Cl)cc1 | 111 to 113 °C |
| Cc1ccc(CC(=O)O)o1 | 56 to 58 °C |
| CCCCc1c(C)nc2nc(S)nn2c1C | 248 to 250 °C |
| Cc1nnnn1-c1cccc(N)c1 | 121 to 123 °C |
| CCN(C(C)=O)c1nc(CCl)cs1 | 82 to 84 °C |
| O=C1OC(CCl)CN1c1ccccc1 (stereo unspecified) | 103 to 105 °C |
| O=C(O)Cc1csc(-c2ccc(Cl)s2)n1 | 136 to 138 °C |
| NC(=O)CCCCCl | 76 to 78 °C |
| O=C(O)C1CSc2ccccc2O1 (stereo unspecified) | 126 to 128 °C |
| Nc1nnc2ccc(Cl)nn12 | 274 to 276 °C |
| O=Cc1nc(-c2ccccc2)c[nH]1 | 170 to 172 °C |
| O=C(Nc1ccc2c(c1)OCCO2)OCC(F)(F)F | 103 to 105 °C |
| O=C(O)c1cncs1 | 169 to 171 °C |
| C#Cc1cccc(NC(=O)NC(=O)CCl)c1 | 185 to 187 °C |
| Cc1ccc(-n2cc(SC(=O)N(C)C)cn2)cc1 | 95 to 97 °C |
| COc1ccnc(N2CCC(C(=O)O)CC2)n1 | 131 to 133 °C |
| CC(=O)c1cnn(-c2ccc(C#N)cc2)c1C | 152 to 154 °C |
| O=C(O)c1cn(Cc2cccnc2)nn1 | 206 to 208 °C |

| Compound | melting point |
| --- | --- |
| O=C(O)CCCc1csc2ccccc12 | 109 to 111 °C |
| CC(N)c1ccc(NC(=O)Nc2ccccc2)cc1 (stereo unspecified) | 165 to 167 °C |
| CN1CC(=O)Nc2ccc(Cl)nc21 | 233 to 235 °C |
| O=C(O)C1CCN(c2ncc(C(F)(F)F)cc2Cl)CC1 | 134 to 136 °C |
| NS(=O)(=O)c1ccc(NCCC(=O)O)c([N+](=O)[O-])c1 | 175 to 177 °C |
| O=S(=O)(c1ccc2c(c1)CCC2)N1CCNCC1 | 90 to 92 °C |
| O=C1CNC(=O)c2sccc2N1 | 239 to 241 °C |
| NC(c1ccc(Cl)cc1)c1ccc(C(F)(F)F)cc1 (stereo unspecified) | 58 to 60 °C |
| O=C(O)c1ccc(NS(=O)(=O)c2ccc(Br)s2)cc1 | 254 to 256 °C |
| COC(=O)c1cc(-c2cccs2)ccc1N | 89 to 91 °C |
| CCOC(=O)c1cnn2c1NCCC2 | 159 to 161 °C |
| COc1ccccc1C(N)=S | 113 to 115 °C |
| COc1cc(C=O)cc(Cl)c1OCC(N)=O | 166 to 170 °C |
| COc1ccc(-c2nnc(S)n2N)cc1OC | 204 to 208 °C |
| Cc1ccc(-c2nnco2)cc1N | 136 to 138 °C |
| Fc1ccccc1-c1nnc(CCl)o1 | 86 to 88 °C |
| Nc1c(C(=O)O)[nH]c(=O)[nH]c1=O | 300 to 302 °C |
| O=C(O)c1cc(/C=C/c2ccc(F)cc2)nc2ccc(Br)cc12 | 299 to 301 °C |
| Cc1ccc(NS(=O)(=O)c2ccc(N)cc2)cc1C | 150 to 152 °C |
| O=C(c1cccnc1O)N1CCCNCC1 | 157 to 159 °C |
| O=C(O)CNC(=O)NCc1ccco1 | 159 to 161 °C |
| Cn1c(Cl)cc(=O)[nH]c1=O | 195 to 197 °C |
| O=[N+]([O-])c1ccc(S(=O)(=O)Cl)c(C(F)(F)F)c1 | 78 to 80 °C |

Source: a melting point compilation (Tetko et al.)
